Results as given in patent publication US9187428B2, “Substituted dicyanopyridines and use thereof” (Bayer Intellectual Property GmbH, priority 2010, dated 2015).
Counter-ions that a name gives are not always drawn.

Assays:
Format in all cases: cell-based
adenosine A1 receptor = adenosine A1 receptor (Homo sapiens (Human), UniProt P30542); experiment: Indirect determination of adenosine agonism by gene expression (luciferase reporter), A1 cells; details: CHO cells stably transfected with adenosine A1 receptor; 1 μM forskolin; 50% inhibition of luciferase response
adenosine A1 receptor, sequence (P30542 whole entry): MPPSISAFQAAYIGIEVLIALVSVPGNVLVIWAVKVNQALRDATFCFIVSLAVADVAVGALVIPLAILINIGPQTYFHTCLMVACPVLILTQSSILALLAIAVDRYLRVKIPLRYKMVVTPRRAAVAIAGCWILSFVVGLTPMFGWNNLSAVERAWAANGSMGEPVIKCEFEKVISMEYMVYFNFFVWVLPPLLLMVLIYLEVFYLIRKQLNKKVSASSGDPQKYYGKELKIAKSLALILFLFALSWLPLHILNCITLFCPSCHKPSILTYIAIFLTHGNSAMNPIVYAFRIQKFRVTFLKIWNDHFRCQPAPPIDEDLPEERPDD
Excerpt: (§1) B-1. Indirect Determination of the Adenosine Agonism by Way of Gene Expression
(§2) Cells of the CHO (Chinese Hamster Ovary) permanent line are transfected stably with the cDNA for the adenosine receptor subtypes A1, A2a and A2b. The adenosine A1 receptors are coupled to the adenylate cyclase by way of Gi proteins, while the adenosine A2a and A2b receptors are coupled by way of Gs proteins. In correspondence with this, the formation of cAMP in the cell is inhibited or stimulated, respectively. After that, expression of the luciferase is modulated by way of a cAMP-dependent promoter. The luciferase test is optimized, with the aim of high sensitivity and reproducibility, low variance and good suitability for implementation on a robot system, by varying several test parameters, such as cell density, duration of the growth phase and the test incubation, forskolin concentration and medium composition. The following test protocol is used for pharmacologically characterizing cells and for the robot-assisted substance screening:
(§3) The stock cultures are grown, at 37° C. and under 5% CO2, in DMEM/F12 medium containing 10% FCS (fetal calf serum) and in each case split 1:10 after 2-3 days. Test cultures are seeded in 384-well plates with 2000 cells per well and grown at 37° C. for approx. 48 hours. The medium is then replaced with a physiological sodium chloride solution (130 mM sodium chloride, 5 mM potassium chloride, 2 mM calcium chloride, 20 mM HEPES, 1 mM magnesium chloride hexahydrate, 5 mM sodium bicarbonate, pH 7.4). The substances to be tested, which are dissolved in DMSO, are pipetted into the test cultures (maximum final concentration of DMSO in the test mixture: 0.5%) in a dilution series of from 5×10^−11 M to 3×10^−6 M (final concentration). 10 minutes later, forskolin is added to the A1 cells and all the cultures are subsequently incubated at 37° C. for four hours. After that, 35 μl of a solution which is composed of 50% lysis reagent (30 mM disodium hydrogenphosphate, 10% glycerol, 3% TritonX100, 25 mM TrisHCl, 2 mM dithiotreitol (DTT), pH 7.8) and 50% luciferase substrate solution (2.5 mM ATP, 0.5 mM luciferin, 0.1 mM coenzyme A, 10 mM tricine, 1.35 mM magnesium sulfate, 15 mM DTT, pH 7.8) are added to the test cultures, which are shaken for approx. 1 minute and the luciferase activity is measured using a camera system. The EC50 values are determined, i.e., the concentrations at which 50% of the luciferase response is inhibited in the case of the A1 cell, and, respectively, 50% of the maximum stimulation with the corresponding substance is achieved in the case of the A2b and A2a cells. […] Pharmacol., 357, 1-9 (1998)].
(§4) Table A below lists the EC50 values of representative working examples for the receptor stimulation on adenosine A1, A2a and A2b receptor subtypes: […]

adenosine A2a receptor = adenosine A2a receptor (Homo sapiens (Human), UniProt P29274); experiment: Indirect determination of adenosine agonism by gene expression (luciferase reporter), A2a cells; details: CHO cells stably transfected with adenosine A2a receptor, 50% of maximum stimulation
adenosine A2a receptor, sequence (P29274 whole entry): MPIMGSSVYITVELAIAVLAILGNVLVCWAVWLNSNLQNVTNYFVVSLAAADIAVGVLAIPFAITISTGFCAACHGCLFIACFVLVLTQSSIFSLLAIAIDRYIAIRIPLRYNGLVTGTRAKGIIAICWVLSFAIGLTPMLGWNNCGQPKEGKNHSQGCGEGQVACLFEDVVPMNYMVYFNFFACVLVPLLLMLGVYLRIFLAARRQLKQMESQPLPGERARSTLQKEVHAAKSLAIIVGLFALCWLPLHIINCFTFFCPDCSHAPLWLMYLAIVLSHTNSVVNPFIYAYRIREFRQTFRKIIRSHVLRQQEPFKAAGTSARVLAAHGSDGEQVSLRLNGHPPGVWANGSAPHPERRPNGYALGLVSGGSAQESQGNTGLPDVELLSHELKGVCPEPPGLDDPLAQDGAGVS
Excerpt: as §1, §2, §3, §4

adenosine A2b receptor = adenosine A2b receptor (Homo sapiens (Human), UniProt P29275); experiment: Indirect determination of adenosine agonism by gene expression (luciferase reporter), A2b cells; details: CHO cells stably transfected with adenosine A2b receptor, 50% of maximum stimulation
adenosine A2b receptor, sequence (P29275 whole entry): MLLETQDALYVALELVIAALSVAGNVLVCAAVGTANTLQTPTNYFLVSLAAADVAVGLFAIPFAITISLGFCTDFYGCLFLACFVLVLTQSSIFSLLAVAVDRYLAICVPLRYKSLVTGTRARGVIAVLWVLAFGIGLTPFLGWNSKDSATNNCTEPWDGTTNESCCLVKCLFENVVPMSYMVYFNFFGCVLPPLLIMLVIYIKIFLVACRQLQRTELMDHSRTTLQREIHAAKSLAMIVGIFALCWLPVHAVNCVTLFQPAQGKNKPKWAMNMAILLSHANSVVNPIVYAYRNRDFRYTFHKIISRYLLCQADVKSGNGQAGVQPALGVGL
Excerpt: as §1, §2, §3, §4

| EC50 (adenosine A2a receptor) [nM] | EC50 (adenosine A2b receptor) [nM] | SMILES | EC50 (adenosine A1 receptor) [nM] |
| --- | --- | --- | --- |
| ≥ 3000 | ≥ 3000 | CNC(=O)c1cc(C(C)Sc2nc(N)c(C#N)c(-c3ccc(OCC(F)(F)F)cc3)c2C#N)ccn1 (racemic) [Example 56, rac-4-[1-({6-Amino-3,5-dicyano-4-[4-(2,2,2-trifluoroethoxy)phenyl]pyridin-2-yl}sulfanyl)ethyl]-N-methylpyridine-2-carboxamide] | 2.8 |
| ≥ 3000 | 1440 | CC(Sc1nc(N)c(C#N)c(-c2ccc(OCCO)cc2)c1C#N)c1cccc(C(N)=O)c1 (racemic) [Example 60, rac-3-[1-({6-Amino-3,5-dicyano-4-[4-(2-hydroxyethoxy)phenyl]pyridin-2-yl}sulfanyl)ethyl]-benzenecarboxamide] | 0.4 |
| ≥ 3000 | 262 | CNC(=O)c1cccc(C(C)Sc2nc(N)c(C#N)c(-c3ccc(OCCO)cc3)c2C#N)c1 (racemic) [Example 62, rac-3-[1-({6-Amino-3,5-dicyano-4-[4-(2-hydroxyethoxy)phenyl]pyridin-2-yl}sulfanyl)ethyl]-N-methylbenzenecarboxamide] | 0.3 |
|  |  | CNC(=O)c1cc(CSc2nc(N)c(C#N)c(-c3ccc(F)cc3)c2C#N)ccn1 [Example 2] | 0.3 |
|  | 71 | CNC(=O)c1cc(CSc2nc(N)c(C#N)c(-c3ccc4c(c3)OCCO4)c2C#N)ccn1 [Example 6] | 0.06 |
| 460 | 32 | CNC(=O)c1cc(CSc2nc(N)c(C#N)c(-c3ccc(OCC(C)(C)O)cc3)c2C#N)ccn1 [Example 7] | 0.1 |
|  |  | N#Cc1c(N)nc(SCc2cccc(C(=O)O)c2)c(C#N)c1-c1ccc(F)cc1 [Example 14, 3-({[6-amino-3,5-dicyano-4-(4-fluorophenyl)pyridin-2-yl]sulfanyl}methyl)-benzenecarboxylic acid] | 3.5 |
|  | 106 | N#Cc1cnc(SCc2cccc(C(=O)O)c2)c(C#N)c1-c1ccccc1 [Example 15] | 0.8 |
|  |  | CNC(=O)c1cc(COc2nc(N)c(C#N)c(-c3ccc(F)cc3)c2C#N)ccn1 [Example 21, 4-({[6-Amino-3,5-dicyano-4-(4-fluorophenyl)pyridin-2-yl]oxy}methyl)-N-methylpyridine-2-carboxamide] | 0.9 |
| 65 | 243 | CCOc1ccc(-c2c(C#N)c(N)nc(SCc3ccnc(C(=O)NC)c3)c2C#N)cc1 [Example 26] | 0.2 |
|  |  | CNC(=O)c1cc(CSc2nc(N)c(C#N)c(-c3ccc(F)c(OC)c3)c2C#N)ccn1 [Example 27] | 0.3 |
|  |  | CNC(=O)c1cc(CSc2nc(N)c(C#N)c(-c3cccc(OCCO)c3)c2C#N)ccn1 [Example 29] | 0.5 |
| 1110 | 122 | CNC(=O)c1cc(CSc2ncc(C#N)c(-c3ccc(OCCO)cc3)c2C#N)ccn1 [Example 30] | 0.4 |
| 707 | 708 | CNC(=O)c1cc(CSc2ncc(C#N)c(-c3ccc(OC)cc3)c2C#N)ccn1 [Example 31] | 1.6 |
|  | 2120 | CNC(=O)c1cc(CSc2ncc(C#N)c(-c3ccccc3)c2C#N)ccn1 [Example 32] | 0.4 |
|  |  | CS(=O)(=O)Nc1cccc(CSc2nc(N)c(C#N)c(-c3ccc(F)c(F)c3)c2C#N)c1 [Example 38] | 0.5 |
|  |  | CNC(=O)c1cc(CSc2nc(N)c(C#N)c(-c3ccc(OC)cc3OC)c2C#N)ccn1 [Example 44] | 0.4 |

| EC50 (adenosine A2a receptor) [nM] | EC50 (adenosine A2b receptor) [nM] | SMILES | EC50 (adenosine A1 receptor) [nM] |
| --- | --- | --- | --- |
| 781 | 425 | CNC(=O)c1cc(CSc2nc(N)c(C#N)c(-c3ccc(OS(=O)(=O)N(C)C)cc3)c2C#N)ccn1 [Example 46] | 0.04 |
|  |  | CCCOc1cccc(-c2c(C#N)c(N)nc(SCc3ccnc(C(=O)NC)c3)c2C#N)c1 [Example 49] | 0.3 |
|  |  | CNC(=O)c1cc(CSc2nc(N)c(C#N)c(-c3ccc(F)c(C(F)(F)F)c3)c2C#N)ccn1 [Example 50] | 0.5 |
|  |  | CNC(=O)c1cc(CSc2nc(N)c(C#N)c(-c3cc(F)cc(F)c3)c2C#N)ccn1 [Example 51] | 0.2 |
|  |  | CNC(=O)c1cc(CSc2nc(N)c(C#N)c(-c3ccc(F)c(F)c3)c2C#N)ccn1 [Example 53] | 0.3 |
| 114 | 169 | CNC(=O)c1cc(CSc2nc(N)c(C#N)c(-c3ccc(OCCN)cc3)c2C#N)ccn1 [Example 54, 4-[({6-Amino-4-[4-(2-aminoethoxy)phenyl]-3,5-dicyanopyridin-2-yl}sulfanyl)methyl]-N-methylpyridine-2-carboxamide trifluoroacetate] | 0.04 |
| 402 | 268 | CNC(=O)c1cc(CSc2nc(N)c(C#N)c(-c3ccc(OCCNC(=O)[C@H](C)N)cc3)c2C#N)ccn1 [Example 55, 4-{[(4-{4-[2-(L-Alanylamino)ethoxy]phenyl}-6-amino-3,5-dicyanopyridin-2-yl)sulfanyl]methyl}-N-methylpyridine-2-carboxamide trifluoroacetate] | 0.4 |
|  | 571 | N#Cc1cnc(SCc2cccc(C(N)=O)c2)c(C#N)c1-c1ccccc1 [Example 65, 3-{[(3,5-Dicyano-4-phenylpyridin-2-yl)sulfanyl]methyl}benzenecarboxamide] | 3.3 |
|  |  | N#Cc1cnc(SCc2cccc(C(=O)NCCO)c2)c(C#N)c1-c1ccccc1 [Example 66, 3-{[(3,5-Dicyano-4-phenylpyridin-2-yl)sulfanyl]methyl}-N-(2-hydroxyethyl)benzenecarboxamide] | 1.3 |
| 1740 | 440 | N#Cc1c(N)nc(OCc2ccnc(C(=O)NC3CC3)c2)c(C#N)c1-c1ccccc1 [Example 68] | 0.4 |
|  |  | CNC(=O)c1cc(CSc2nc(N3CC(O)C3)c(C#N)c(-c3ccc(OC)cc3)c2C#N)ccn1 [Example 72] | 0.5 |
|  |  | CNC(=O)c1cc(CSc2nc(N3CC(O)C3)c(C#N)c(-c3ccc(F)c(F)c3)c2C#N)ccn1 [Example 74] | 2.4 |
|  |  | CNC(=O)c1cc(CSc2nc(NCCO)c(C#N)c(-c3ccc(OC)cc3)c2C#N)ccn1 [Example 84] | 0.4 |
|  |  | CNC(=O)c1cc(CSc2nc(NCC(O)C(F)(F)F)c(C#N)c(-c3ccccc3)c2C#N)ccn1 (stereo not shown) [Example 87] | 0.6 |
|  |  | CNC(=O)c1cc(COc2nc(N3CC(O)C3)c(C#N)c(-c3ccccc3)c2C#N)ccn1 [Example 93, 4-({[3,5-Dicyano-6-(3-hydroxyazetidin-1-yl)-4-phenylpyridin-2-yl]oxy}methyl)-N-methylpyridine-2-carboxamide] | 0.9 |
|  |  | CNC(=O)c1cccc(CSc2nc(N3CC[C@@H](O)C3)c(C#N)c(-c3ccc(OCCO)cc3)c2C#N)c1 [Example 94, 3-[({3,5-Dicyano-4-[4-(2-hydroxyethoxy)phenyl]-6-[(3R)-3-hydroxypyrrolidin-1-yl]pyridin-2-yl}-sulfanyl)methyl]-N-methylbenzenecarboxamide] | 0.2 |
|  | 204 | N#Cc1c(N)nc(SCc2cccc(C(=O)NC[C@@H](O)CO)c2)c(C#N)c1-c1ccc(F)cc1 [Example 96, 3-({[6-Amino-3,5-dicyano-4-(4-fluorophenyl)pyridin-2-yl]sulfanyl}methyl)-N-[(2R)-2,3-dihydroxypropyl]benzenecarboxamide] | 0.4 |

| SMILES | EC50 (adenosine A2a receptor) [nM] | EC50 (adenosine A2b receptor) [nM] | EC50 (adenosine A1 receptor) [nM] |
| --- | --- | --- | --- |
| CNC(=O)c1cc(CSc2nc(N)c(C#N)c(-c3ccc(OC)cc3)c2C#N)ccn1 [Example 3] | 425 |  | 0.2 |
| CNC(=O)c1cc(CSc2nc(N)c(C#N)c(-c3ccc(NC)cc3)c2C#N)ccn1 [Example 28] | 1640 |  | 0.4 |
| CS(=O)(=O)Nc1cccc(CSc2nc(N)c(C#N)c(-c3ccc(F)cc3)c2C#N)c1 [Example 37] | 1780 |  | 0.7 |
| CNC(=O)c1cc(CSc2nc(N3CC[C@@H](O)C3)c(C#N)c(-c3ccc4c(c3)OCCO4)c2C#N)ccn1 [Example 82] | 1980 |  | 0.2 |
| N#Cc1c(SCc2ccnc(C(=O)NC3CC3)c2)nc(N2CCCC2)c(C#N)c1-c1ccccc1 [Example 85] | 1020 |  | 0.5 |
| CNC(=O)c1cc(CSc2nc(NCCO)c(C#N)c(-c3ccccn3)c2C#N)ccn1 [Example 88] | 1980 |  | 0.7 |
